Consider 27 compounds from patent US9708267B2, “Activators of human pyruvate kinase” (The United States of America, as represented by the …, priority 2010, dated 2017).

The AC50 is the midpoint of the concentration-response curve, whichever way the signal moves.

Where two headings read alike, the source gives them in different places.

For this experiment, the target named is hPK, M2 (Homo sapiens, UniProt P14618). The experiment in a line: luminescent pyruvate kinase-luciferase coupled assay (qHTS). Format: biochemical. The conditions noted are these: for Emax: read-out: Max. Res.; for activation at 57 µM: % activation at 57 μM of compound, read-out: hPK, M2 Max. Res. The procedure:
AC50 values were determined utilizing the luminescent pyruvate kinase-luciferase coupled assay (Inglese, J. et al, Quantitative high-throughput screening: a titration-based approach that efficiently identifies biological activities in large chemical libraries. Proc. Natl. Acad. Sci. U.S.A. 2006, 103, 11473-11478).
Luminescent Pyruvate Kinase-Luciferase Coupled Assay.
Production of a luminescent signal based on the generation of ATP by pyruvate kinase was determined by using the ATP-dependent enzyme firefly luciferase. Three μL of substrate mix (at r.t.) in assay buffer (50 mM imidazole pH 7.2, 50 mM KCl, 7 mM MgCl2, 0.01% tween 20, 0.05% BSA) was dispensed into Kalypsys (San Diego, Calif., USA) white solid bottom 1,536 well microtiter plates using a bottle-valve solenoid-based dispenser (Kalypsys). The final concentrations of substrates in the assay were 0.1 mM ADP and 0.5 mM PEP. Twenty-three nL of compound in DMSO were delivered with a 1,536-pin array tool, and 1 μL of enzyme mix in assay buffer (final concentration, 0.1 nM pyruvate kinase, 50 mM imidazole pH 7.2, 0.05% BSA, 4° C.) was added. Microtiter plates were incubated at r.t. for 1 hour and 2 uL of luciferase detection mix (Kinase-Glo from Promega, Madison, Wis., USA) at 4° C. protected from light, was added and luminescence was read with a ViewLux (Perkin Elmer, Waltham, Mass., USA) using a 2 second exposure/plate (with 2× binning). The final concentration of DMSO was 0.5% and found not to affect the assay signal.
Data was normalized for AC50 values to control columns containing uninhibited enzyme (n), and AC100 inhibition (i) according the following equation: Activation (%)=[(c−n)/(n−i)]*100 where c=compound, n=DMSO neutral, i=no enzyme control. A % activity of 100% is approximately a 2-fold increase over basal assay signal (% Activation by FBP was variable but averaged 100%). Monitoring of activation was accomplished using enzyme at 3× the final concentration.
All compounds were screened using a qHTS approach, where compounds are assayed using at least seven concentrations to generate concentration-response curves for every compounds. Briefly, qHTS uses an inter-plate dilution method where the first plate contains the highest concentration of a set of compounds in DMSO, while subsequent plates contain the same compounds in the same well locations, but at successive lower concentrations. Using the protocol outlined above, the rate was calculated as a plate throughput of 18 plates/hr or approximately 7 samples/sec on the Kalypsys robotic system which means that a 7 point CRC was obtained every second on the robotic system.
In general terms: qHTS replaces the single test concentration by a dilution series.

Setting [1] is: Table 4, maximum response (activation).
The mark [2] stands for this setting: linkage variants of compound 4, read-out: AC50.
Where [3] appears, read: Table 1, 0.1 mM ADP, 0.5 mM PEP, mean of three replicate experiments, read-out: hPK, M2 AC50.
Setting [4] is: Table 1, mean of three replicate experiments.
[5] abbreviates: Table 2, 0.1 mM ADP, 0.5 mM PEP, mean of three replicate experiments, read-out: hPK, M2 AC50.
The mark [6] stands for this setting: Table 2, mean of three replicate experiments.
[7] abbreviates: Table 4, 0.1 mM ADP, 0.5 mM PEP, read-out: AC50.
[8] abbreviates: Table 3, 0.1 mM ADP, 0.5 mM PEP, mean of three replicate experiments, read-out: hPK, M2 AC50.
[9] abbreviates: Table 3, mean of three replicate experiments.

Chain of hPK, M2 (P14618 whole entry): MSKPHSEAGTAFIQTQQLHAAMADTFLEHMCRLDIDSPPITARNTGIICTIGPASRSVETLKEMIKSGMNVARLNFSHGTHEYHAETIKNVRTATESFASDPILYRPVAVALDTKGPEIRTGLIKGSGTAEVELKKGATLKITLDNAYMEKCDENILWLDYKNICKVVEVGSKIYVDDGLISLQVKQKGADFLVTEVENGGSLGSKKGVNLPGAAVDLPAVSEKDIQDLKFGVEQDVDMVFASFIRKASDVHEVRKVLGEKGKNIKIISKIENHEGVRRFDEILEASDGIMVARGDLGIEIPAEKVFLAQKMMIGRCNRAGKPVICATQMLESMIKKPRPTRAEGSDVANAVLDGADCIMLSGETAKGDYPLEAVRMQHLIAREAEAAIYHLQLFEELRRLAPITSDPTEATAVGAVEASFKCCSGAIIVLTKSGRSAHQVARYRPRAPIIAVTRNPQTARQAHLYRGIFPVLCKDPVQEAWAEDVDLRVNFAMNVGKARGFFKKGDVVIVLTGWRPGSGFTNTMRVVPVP

As for `Cc1ccc(N(C)S(=O)(=O)c2ccc3c(c2)CCC(=O)N3)cc1C` [Compound 41, N-(3,4-dimethylphenyl)-N-methyl-2-oxo-1,2,3,4-tetrahydroquinoline-6-sulfonamide], the “Max. Res.” value under setting [1] is reported as 36.00. Moreover, the AC50 under setting [2] came to 23.1 µM. In addition, the Emax (linkage variants of compound 4) was found to be 36%.

As for `Cc1ccc(NS(=O)(=O)c2ccc3[nH]c(=O)[nH]c3c2)cc1C` [Compound 9, N-(3,4-dimethylphenyl)-2-oxo-2,3-dihydro-1H-benzo[d]imidazole-5-sulfonamide], the AC50 under setting [3] stood at 21 µM. Further, the activation at 57 µM under setting [4] turned out to be 59%.

As to `O=C1CCc2cc(S(=O)(=O)Nc3cccc(C(F)(F)F)c3)ccc2N1` [Compound 17, 2-oxo-N-(3-(trifluoromethyl)phenyl)-1,2,3,4-tetrahydroquinoline-6-sulfonamide], under setting [5], the AC50 came out at 13 µM. For the same compound, under setting [6], the activation at 57 µM stood at 96%.

Take `Cc1ccc(NS(=O)(=O)c2ccc3c(c2)CC(=O)N3)cc1C` [Compound 5, N-(3,4-dimethylphenyl)-2-oxoindoline-5-sulfonamide]: the AC50 under setting [3] worked out at 14.5 µM. Under setting [4], the activation at 57 µM worked out at 130%.

With `Cc1ccc(NC(=O)c2ccc3c(c2)CCC(=O)N3)cc1C` [Compound 42, N-(3,4-dimethylphenyl)-2-oxo-1,2,3,4-tetrahydroquinoline-6-carboxamide], the “Max. Res.” value under setting [1] is 5. The AC50 under setting [2] stood at 40 µM. Also, the Emax (linkage variants of compound 4) came to 5%.

Consider `Cc1ccc(NS(=O)(=O)c2cc3c(cc2NC(C)C)NC(=O)CC3)cc1C` [Compound 65, N-(3,4-dimethylphenyl)-7-(isopropylamino)-2-oxo-1,2,3,4-tetrahydroquinoline-6-sulfonamide], for which the concentration at half-maximal activity (AC50) under setting [7] came to 0.32 µM. In addition, the Emax under setting [1] was 106%.

Take `Cc1ccc(NS(=O)(=O)c2cc3c(cc2N2CCC(N(C)C)C2)NC(=O)CC3)cc1C` (centres unmarked) [Compound 63, 7-(3-(dimethylamino)pyrrolidin-1-yl)-N-(3,4-dimethylphenyl)-2-oxo-1,2,3,4-tetrahydroquinoline-6-sulfonamide]: the AC50 under setting [7] came out at 8.19 µM. The Emax under setting [1] was 102%.

With `COc1cccc(NS(=O)(=O)c2ccc3c(c2)CCC(=O)N3)c1` [Compound 15, N-(3-methoxyphenyl)-2-oxo-1,2,3,4-tetrahydroquinoline-6-sulfonamide], the AC50 under setting [5] is 3.2 µM. For the same compound, under setting [6], the activation at 57 µM was determined as 91%.

For the compound `O=C1CCc2cc(S(=O)(=O)Nc3ccc4c(c3)OCCO4)ccc2N1` [Compound 29, N-(2,3-dihydrobenzo[b][1,4]dioxin-6-yl)-2-oxo-1,2,3,4-tetrahydroquinoline-6-sulfonamide], under setting [5], the AC50 was 16 µM. Under setting [6], the activation at 57 µM stood at 86%.

`CNc1cc2c(cc1S(=O)(=O)Nc1ccc(C)c(C)c1)CCC(=O)N2` [Compound 33, N-(3,4-dimethylphenyl)-7-(methylamino)-2-oxo-1,2,3,4-tetrahydroquinoline-6-sulfonamide]: the AC50 under setting [8] was found to be 0.16 µM. Also, the activation at 57 µM under setting [9] was 53%.

For the compound `Cc1ccc(NS(=O)(=O)c2cc3c(cc2NCCO)NC(=O)CC3)cc1C` [Compound 70, N-(3,4-dimethylphenyl)-7-(2-hydroxyethylamino)-2-oxo-1,2,3,4-tetrahydroquinoline-6-su 1 fonamide], the AC50 under setting [7] is 0.09 µM. Also, the Emax under setting [1] is 111%.

Regarding `C[C@@H](CO)Nc1cc2c(cc1S(=O)(=O)Nc1ccc(F)c(Cl)c1)CCC(=O)N2` [Compound 73, (S)—N-(3-chloro-4-fluorophenyl)-7-(1-hydroxypropan-2-ylamino)-2-oxo-1,2,3,4-tetrahydroquinoline-6-sulfonamide], under setting [7], the AC50 came to 0.14 µM. Moreover, the Emax under setting [1] came out at 95%.

Consider `O=C1CCc2cc(S(=O)(=O)Nc3ccc(F)cc3)ccc2N1` [Compound 23, N-(4-fluorophenyl)-2-oxo-1,2,3,4-tetrahydroquinoline-6-sulfonamide], for which the AC50 under setting [5] worked out at 10 µM. The activation at 57 µM under setting [6] was determined as 99%.

`Cc1ccc(NS(=O)(=O)c2ccc3c(c2)CCC(=O)N3)cc1` [Compound 21, 2-oxo-N-p-tolyl-1,2,3,4-tetrahydroquinoline-6-sulfonamide]: the AC50 under setting [5] is 4.1 µM. For the same compound, the activation at 57 µM under setting [6] turned out to be 110%.

Turning to `Cc1ccc(NS(=O)(=O)c2cc3c(cc2N(C)C)CCC(=O)N3)cc1C` [Compound 36, 6-(dimethylamino)-N-(3,4-dimethylphenyl)-2-oxo-1,2,3,4-tetrahydroquinoline-7-sulfonamide], the AC50 under setting [8] worked out at 0.46 µM. Also, the activation at 57 µM under setting [9] is 110%.

As for `Cc1ccc(NS(=O)(=O)c2ccc3c(c2)NC(=O)CO3)cc1C` [Compound 7, N-(3,4-dimethylphenyl)-3-oxo-3,4-dihydro-2H-benzo[b][1,4]oxazine-6-sulfonamide], the AC50 under setting [3] came out at 20 µM. The activation at 57 µM under setting [4] is 93%.

In the case of `Cc1ccccc1NS(=O)(=O)c1ccc2c(c1)CCC(=O)N2` [Compound 24, 2-oxo-N-o-tolyl-1,2,3,4-tetrahydroquinoline-6-sulfonamide], the AC50 under setting [5] turned out to be 3.9 µM. Further, the activation at 57 µM under setting [6] was determined as 96%.

`Cc1ccc(NS(=O)(=O)c2cc3c(cc2NC(C)CO)NC(=O)CC3)cc1C` (centres unmarked) [Compound 67, N-(3,4-dimethylphenyl)-7-(1-hydroxypropan-2-ylamino)-2-oxo-1,2,3,4-tetrahydroquinoline-6-sulfonamide]: the concentration at half-maximal activity (AC50) under setting [7] stood at 0.11 µM. Further, the Emax under setting [1] stood at 110%.

Take `Cc1ccc(NS(=O)(=O)c2cc3c(cc2Cl)CCC(=O)N3)cc1Cl` [Compound 49, 6-chloro-N-(3-chloro-4-methylphenyl)-2-oxo-1,2,3,4-tetrahydroquinoline-7-sulfonamide]: the AC50 under setting [7] is 0.65 µM. For the same compound, the Emax under setting [1] worked out at 112%.

`Cc1ccc(NS(=O)(=O)c2cc3c(cc2Cl)NC(=O)C3)cc1C` [Compound 57, 6-chloro-N-(3,4-dimethylphenyl)-2-oxoindoline-5-sulfonamide]: the AC50 under setting [7] worked out at 0.92 µM. For the same compound, the Emax under setting [1] came out at 108%.

With `Cc1cc(NS(=O)(=O)c2cc3c(cc2N[C@@H](C)CO)NC(=O)CC3)ccc1F` [Compound 72, (S)—N-(4-fluoro-3-methylphenyl)-7-(1-hydroxypropan-2-ylamino)-2-oxo-1,2,3,4-tetrahydroquinoline-6-sulfonamide], the AC50 under setting [7] is 0.27 µM. Under setting [1], the Emax is 99%.

Regarding `COc1ccccc1NS(=O)(=O)c1ccc2c(c1)CCC(=O)N2` [Compound 25, N-(2-methoxyphenyl)-2-oxo-1,2,3,4-tetrahydroquinoline-6-sulfonamide], the AC50 under setting [5] amounted to 21 µM. The activation at 57 µM under setting [6] stood at 60%.

On to `Cc1ccc(NS(=O)(=O)c2ccc3c(c2)CCC(=O)N3)cc1F` [Compound 55, N-(3-fluoro-4-methylphenyl)-2-oxo-1,2,3,4-tetrahydroquinoline-6-sulfonamide], for which the AC50 under setting [7] amounted to 0.46 µM. Further, the Emax under setting [1] was 131%.

As to `Cc1ccc(NS(=O)(=O)c2ccc3c(c2)C(Cl)(Cl)C(=O)N3)cc1C` [Compound 60, 3,3-dichloro-N-(3,4-dimethylphenyl)-2-oxoindoline-5-sulfonamide], the AC50 under setting [7] came out at 10.3 µM. Further, the Emax under setting [1] came to 117%.

Regarding `N#Cc1cccc(NS(=O)(=O)c2ccc3c(c2)CCC(=O)N3)c1` [Compound 46, N-(3-cyanophenyl)-2-oxo-1,2,3,4-tetrahydroquinoline-6-sulfonamide], the AC50 under setting [7] stood at 9.19 µM. For the same compound, the Emax under setting [1] was determined as 97%.

Consider `CCN(CC)c1cc2c(cc1S(=O)(=O)Nc1ccc(C)c(C)c1)CCC(=O)N2` [Compound 66, 7-(diethylamino)-N-(3,4-dimethylphenyl)-2-oxo-1,2,3,4-tetrahydroquinoline-6-sulfonamide], for which the AC50 under setting [7] is 7.24 µM. Under setting [1], the Emax turned out to be 111%.

On to `O=C1CCc2cc(S(=O)(=O)Nc3ccccc3F)ccc2N1` [Compound 26, N-(2-fluorophenyl)-2-oxo-1,2,3,4-tetrahydroquinoline-6-sulfonamide], for which the AC50 under setting [5] was 7.3 µM. Under setting [6], the activation at 57 µM was 85%.
